# Reference: patent US20080235824A1, “Use of Esterase Genes as Selectable Markers for Transforming Plant Cells” (priority 2006, published 2008)
# B1: bovine PGE: bovine pregastric esterase, cloned from calf salivary glands and expressed in plants (protein)
# chain: MWWLLVTVCFIHMSGNAFCFLGKIAKNPEASMNVSQMISYWGYPSEMHKVITADGYILQVYRIPHGKNNANHLGQRPVVFLQHGLLGSATNWISNLPKNSLGFLLADAGYDVWLGNSRGNTWAQEHLYYSPDSPEFWAFSFDEMAEYDLPSTIDFILRRTGQKKLHYVGHSQGTTIGFIAFSTNPTLAEKIKVFYALAPVATVKYTKSLFNKLALIPHFLFKIIFGDKMFYPHTFLEQFLGVEMCSRETLDVLCKNALFAITGVDNKNFNMSRLDVYIAHNPAGTSVQNTLHWRQAVKSGKFQAFDWGAPYQNLMHYHQPTPPIYNLTAMNVPIAVWSADNDLLADPQDVDLLLSKLSNLIYHKEIPNYNHLDFIWAMDAPQEVYNEIVSLMAEDKKEL
# modifications: Bovine pregastric esterase cloned by IPG, translation product, with native leader and two amino acids added to form an ER retention signal sequence
# notes: bovine pregastric esterase, cloned from calf salivary glands and expressed in plants
# B2: nematode triglyceride lipase-cholesterol esterase: C. elegans triglyceride lipase-cholesterol esterase expressed in plants (protein)
# chain: MKSLLLLFLLFLHTLCENVTTPNSEEDTDMTATPSTITPLLSTAQNPSLPKTSKLPLALKTPVPTFPFSSLATSDWLSSMPTIQTLLPPPLPLTTLEVPENENFGFTSLAPLWTLPTQPPAWSPMLDSPIKPIQNSMFPTFPTMPTLPTLPTLAPFTFPTLPPPTTMKPLNITIDPEALMDVPEIITHWGYPVETHKVVTVDGYILTLHRIPHSKNETSKSASKTPKPVVFLQHGLLCTSSIWLLNLPRQSAGYIFADQGYDVWLGNMRGNTYSKEHTRMTSADRRFWKFSWEEMARYDLPAMINYALKTTKRQNLYYVGHSQGALTMFAKMSEDPEMSKKIRKFFAMAPVARMSHVKGLFQNLGQIYEQYNLVYQVFGDGEFLTNNIFTKLLTDIFCDQAVNNPLCENFIFAVSGPNSNQFNNSRIGIYLAHNPAGTSSRNILHFAQMVKKKRMSRFDHGKDLNLKIYGAPSPPEYDIRKINSSIYLFYSDFDWLANPKDVEGFLIPMLPSKTLKKATKLRDFNHNDFLWGMRARKEIYDKIINTIKLDQRRVKLQNSMERFFERQSRNPTSGLDEETMMRLRNETMNLD
# modifications: Caenorhabditis elegans
# notes: C. elegans triglyceride lipase-cholesterol esterase expressed in plants
# Tests used:
# [1] = system: tomato cultivar Micro-Tom leaf explants; test: Agrobacterium transformation of tomato with selection on detergent or kanamycin; assay type: cell-based, Lycopersicon esculentum; details: tomato Micro-Tom, pIPG768 nptII, 100 micrograms/ml kanamycin, Exp. 1, 98 explants; for Transformation frequency (%): confirmed by PCR
# Description: Transgenic tomato (Lycopersicon esculentum) cultivar “Micro-Tom” plants were created using the Agrobacterium tumefaciens DNA delivery method [Riggs et al., 2001; Sun et al., 2006] using pIPG768. Selection was either on 1% Tween 20 added to both shoot and root regeneration media. As controls for comparative purposes, 100 micrograms/ml kanamycin was used.
# [2] = system: tobacco cultivar Xanthi leaf explants; test: Agrobacterium transformation of tobacco with selection on detergent or kanamycin; assay type: cell-based, Nicotiana tabacum; details: tobacco Xanthi, pIPG786 nptII, 100 micrograms/ml kanamycin, 235 explants
# Description: Transgenic tobacco (Nicotiana tabacum) cultivar “Xanthi” plants were created using the Agrobacterium tumefaciens DNA delivery method [Horsch et al., 1985] using pIPG833. Selection was on 1% or on 0.05% Tween 20 added to both shoot and root regeneration media. As a control for comparative purposes, pIPG786 was used (carrying the nptII gene for kanamycin resistance) for transformation and 100 micrograms/ml kanamycin was used for selection.
# Transgenic tobacco (Nicotiana tabacum) cultivar “Xanthi” plants were created using the Agrobacterium tumefaciens DNA delivery method [Horsch et al., 1985] using pIPG833. Selection was on 1% or on 0.05% Span 20 added to both shoot and root regeneration media.
# Transgenic tobacco (Nicotiana tabacum) cultivar “Xanthi” plants were created using the Agrobacterium tumefaciens DNA delivery method [Horsch et al., 1985] using pIPG875. Selection was on 1% Span 20 added to the shoot regeneration medium and 0.05% Span 20 added to the root regeneration medium.
# [3] = system: geranium petiole explants; test: Survival of geranium petiole explants on regeneration medium with detergents; assay type: cell-based, Pelargonium X hortorum; details: for Survival of geranium petiole explants on regeneration medium: surviving/total explants
# Description: Tween 20, a nonionic, fatty acid ester detergent, was evaluated as a potential selective agent for use in geranium (Pelargonium X hortorum) transformation experiments by placing geranium petiole explants into tissue culture with the addition to Tween 20 to the regeneration (shooting) medium normally used in geranium transformations (Robichon et al., 1995). Tween 20 was added at three concentrations: 1%, 0.1% and 0.01%. Each treatment consisted of 40 sterilized petiole explants placed in four tissue culture plates carrying 10 explants each. Survival of the explants was assayed weekly over four weeks on these media. Potential selective agent Span 20, also a nonionic, fatty acid ester detergent, was similarly evaluated, except that concentrations of 1%, 0.5% and 0.25% were evaluated over a twelve week period of time. The nonionic detergent Triton X-100, which is not a fatty acid ester detergent, was included for comparative purposes.
# tomato leaf explants = test: Survival of tomato leaf explants on regeneration medium with detergents; assay type: cell-based, Lycoperisicon esculentum; details: 1% detergent; for Survival of tomato leaf explants on regeneration medium: surviving/total explants
# Description: Tween 20 was similarly evaluated as a potential selective agent for use in tomato (Lycoperisicon esculentum) transformations by placing tomato leaf explants placed into tissue culture; Tween 20 was added to tomato regeneration (shooting) medium normally used in tomato transformations (Riggs et al., 2001) at a 1% concentration. Each treatment consisted of 40 sterilized leaf explants placed in four tissue culture plates carrying 10 explants each. Survival of the explants was assayed weekly over four weeks on these media.
# [4] = Phenol red lipase/esterase assay with crude plant leaf extracts; assay type: biochemical; details: transiently plant-expressed enzyme or positive control
# Description: In this Figure, the first tube on the left (labeled “Buffer”) contains phenol red buffer and Tween 20 (the dark red color appears dark in this black and white figure); the second tube to the right (“SL”) has 4 Units of Sigma porcine pancreatic lipase added (the bright yellow color appears light); the third tube to the right (labeled “731”) has a twenty microliter droplet of a crude tomato plant leaf extract from leaves inoculated 4 days earlier with GV2260 carrying “empty” (ie., no lipase gene) expression vector pIPG731 (the dark red color appears dark), and the fourth tube to the right (“768 WI”) has a twenty microliter droplet of crude tomato plant leaf extract from leaves inoculated four days earlier with GV2260 carrying cloned bovine pregastric esterase expressed in pIPG768 (the bright yellow color appears light). Tomato leaf tissue particles may be seen floating in the third and fourth tubes to the right. […] The photo was taken 16 hrs. after start of the assay.
# For transient expression assays of bovine PGE, the plant transformation and expression vectors constructed in Example 12 were moved into A. tumefaciens strain GV2260 by either electroporation or bacterial conjugation as described (Kapila et al., 1997). GV2260 carrying pIPG745 or pIPG746 was used for transient expression in tobacco, pepper, tomato, citrus, geranium, and rice plants as described (Kapila et al. 1997; Duan et al., 1999; Wroblewski et al. 2005). Cultures of Agrobacterium harboring the constructs of interest were grown in minimal medium in the presence of acetosyringone to induce the Agrobacterium vir genes. The optical density of the cultures was maintained at 0.008 for pepper and tomato and at 0.25 for citrus, geranium and rice. Strain GV2260 was flooded into healthy, young, fully expanded leaves of vigorous plants into the apoplastic space through open stomata by injection using a tuberculin syringe without a needle, flooding entire leaves. After 3-4 days, two grams of leaf tissue (fresh weight), was ground in liquid nitrogen to a fine powder, and 0.5 ml of ice cold phosphate buffered saline (PBS; 137 mM NaCl, 2.7 mM KCl, 10 mM potassium phosphate, pH 7.4) was added and mixed thoroughly at 4 C. The mixture was mixed on an orbital shaker at 4 C for 30 minutes, and plant debris was pelleted at 10,000×g for 15 minutes and discarded. The supernatants from these crude plant leaf extracts were directly used in lipase/esterase assays.
# The second activity assay was a phenol red lipase/esterase assay using tributyrin, olive oil or Tween 20 as substrates as described by Singh et al. (2006), except that liquid medium, rather than solidified agar medium, was used. Twenty microliter droplets of crude plant leaf extracts and the positive control were placed in the tributyrin/phenol red medium containing tributyrin, olive oil or Tween 20 and incubated at 30 C overnight. […] Transient expression of bovine PGE was confirmed in tobacco, pepper, tomato, citrus, geranium, and rice plants.
# For transient expression assays, the plant transformation and expression vectors constructed in Example 15 were moved into A. tumefaciens strain GV2260 by electroporation. GV2260 carrying pIPG823 was used for transient expression in tobacco and geranium plants exactly as described in Example 20. The supernatants from crude plant leaf extracts were directly used in phenol red lipase/esterase assays using tributyrin and olive oil as substrates exactly as described in Example 20.
molecule,measurement,setting,value
"NC[C@H]1O[C@H](O[C@H]2[C@H](O)[C@@H](O[C@H]3O[C@H](CO)[C@@H](O)[C@H](N)[C@H]3O)[C@H](N)C[C@@H]2N)[C@H](O)[C@@H](O)[C@@H]1O [kanamycin, reference compound]",No. of independent calli forming shoots,[1],40
same,No. of rooted shoots,[1],40
same,Transformation frequency (%),[1],1%
same,Transformation frequency (%),[1]; listed as Kanamycin,1%
same,No. of independent calli forming shoots,[2],55
same,No. of rooted shoots,[2],55
same,Transformation frequency (%),[2]; confirmed by PCR,19%
Triton X-100,Survival of geranium petiole explants on regeneration medium,"[3]; 0.01% detergent, Week 1",39/40
same,Survival of geranium petiole explants on regeneration medium,"[3]; 0.01% detergent, Week 2",39/40
same,Survival of geranium petiole explants on regeneration medium,"[3]; 0.01% detergent, Week 3",39/40
same,Survival of geranium petiole explants on regeneration medium,"[3]; 0.01% detergent, Week 4",14/40
same,Survival of geranium petiole explants on regeneration medium,"[3]; 0.1% detergent, Week 1",40/40
same,Survival of geranium petiole explants on regeneration medium,"[3]; 0.1% detergent, Week 2",40/40
same,Survival of geranium petiole explants on regeneration medium,"[3]; 0.1% detergent, Week 3",40/40
same,Survival of geranium petiole explants on regeneration medium,"[3]; 0.1% detergent, Week 4",9/40
same,Survival of geranium petiole explants on regeneration medium,"[3]; 1% detergent, Week 1",39/40
same,Survival of geranium petiole explants on regeneration medium,"[3]; 1% detergent, Week 2",39/40
same,Survival of geranium petiole explants on regeneration medium,"[3]; 1% detergent, Week 3",37/40
same,Survival of geranium petiole explants on regeneration medium,"[3]; 1% detergent, Week 4",19/40
same,Killing of geranium explants in tissue culture (in words),[3]; summary of Table 1,much less efficient and much more variable in killing
same,Survival of tomato leaf explants on regeneration medium,tomato leaf explants; Week 1,40/40
same,Survival of tomato leaf explants on regeneration medium,tomato leaf explants; Week 2,40/40
same,Survival of tomato leaf explants on regeneration medium,tomato leaf explants; Week 3,10/40
same,Survival of tomato leaf explants on regeneration medium,tomato leaf explants; Week 4,7/40
same,Killing of tomato explants in tissue culture (in words),tomato leaf explants; summary of Table 2,both less effective and unpredictable in killing
B1,Substrates utilized in phenol red lipase/esterase assay,[4],"utilized all three substrates: tributyrin, olive oil and Tween 20"
B2,Substrates utilized in phenol red lipase/esterase assay,[4],utilized tributyrin and olive oil
